Test results taken from publication PMC5776679 (Journal of medicinal chemistry, 2016).
Like-named read-outs stand apart in the source and are kept apart here.

Columns and labels:
[1] = phase I, preliminary data on Chimerix's website; cited from earlier work
HIV-1 = details: for EC50: read-out: EC50 (PBMCs) HIV-1
Stability in PBS = details: all examined media except human serum
HBV = details: therapeutic index at the EC50, HepG2
HepG2 [2] = details: human
in vitro = details: human
PBMCs = assay: Cytotoxicity in uninfected PBMCs; details: read-out: CC50 (PBMCs), concentration required to reduce the viability of uninfected cells by 50%, triplicate
HepG2 [3] = assay: Cytotoxicity in uninfected HepG2 cells; details: read-out: CC50 (HepG2), concentration required to reduce the viability of uninfected cells by 50%, triplicate
[4] = monkeys; cited from earlier work
[5] = rats; cited from earlier work
[6] = clinical trials; cited from earlier work
[7] = therapeutic index at the EC50, PBMCs

Row | Compound | TI (CC50/EC50) HIV-1 (HIV-1) | TI (CC50/EC50) HBV (HBV) | EC50 (HIV-1) [µM] | further results
1 | CCCCCCCCCCCCCCCCOCCCOP(=O)(O)CO[C@H](C)Cn1cnc2c(N)ncnc21 [compound 1, hexadecyloxypropyl-tenofovir, reference compound] | >5000 |  |  | tolerability [1]: well-tolerated
2 | CCCCCCCCCCCCCCSSCCOP(=O)(O)CO[C@H](C)Cn1cnc2c(N)ncnc21.N [12c, 2-(Tetradecyldisulfanyl)ethyl Hydrogen ((((R)-1-(6-Amino-9H-purin-9-yl)propan-2-yl)oxy)methyl)phosphonate] |  | >56 |  | fold stability increase over 12d (Stability in PBS): ~2 fold; TI (CC50/EC50) HIV-1 (HIV-1; [7]): 28000
3 | CCCCCCCCCCCCSSCCOP(=O)(O)CO[C@H](C)Cn1cnc2c(N)ncnc21.N [12b, 2-(Dodecyldisulfanyl)ethyl Hydrogen ((((R)-1-(6-Amino-9H-purin-9-yl)propan-2-yl)oxy)methyl)phosphonate] |  | >30 |  | 
4 | CC(C)OC(=O)OCOP(=O)(CO[C@H](C)Cn1cnc2c(N)ncnc21)OCOC(=O)OC(C)C.O=C(O)/C=C/C(=O)O [TDF, tenofovir disoproxil fumarate] |  |  |  | CC50 (HepG2 [2]): 64.5 µM; CC50 (in vitro): 29.2 µM
5 | 2-(Decyldisulfanyl)ethyl (2-(Decylsulfinothioyl)ethyl) ((((R)-1-(6-Amino-9H-purin-9-yl)propan-2-yl)oxy)methyl)phosphonate [13a] | >287 | >1 | 0.349 | CC50 (PBMCs): > 100 µM; CC50 (HepG2 [3]): > 100 µM
6 | 2-(Tetradecyldisulfanyl)ethyl (2-(Tetradecylsulfinothioyl)ethyl) ((((R)-1-(6-Amino-9H-purin-9-yl)propan-2-yl)oxy)methyl)-phosphonate [13c] | >529 | >1 | 0.189 | CC50 (PBMCs): > 100 µM; CC50 (HepG2 [3]): > 100 µM
7 | C[C@H](Cn1cnc2c(N)ncnc21)OCP(=O)(O)O [TFV, Tenofovir, reference compound] | >300 |  |  | 
8 | CCCCCCCCCCCCCCCCSSCCOP(=O)(O)CO[C@H](C)Cn1cnc2c(N)ncnc21.N [12d, 2-(Hexadecyldisulfanyl)ethyl Hydrogen ((((R)-1-(6-Amino-9H-purin-9-yl)propan-2-yl)oxy)methyl)phosphonate] |  | >1200 |  | 
9 | CCCCCCCCCCSSCCOP(=O)(O)CO[C@H](C)Cn1cnc2c(N)ncnc21.N [12a, 2-(Decyldisulfanyl)ethyl Hydrogen ((((R)-1-(6-Amino-9H-purin-9-yl)propan-2-yl)oxy)methyl)phosphonate] |  | >1 |  | TI (CC50/EC50) HIV-1 (HIV-1; [7]): >590
10 | 2-(Hexadecyldisulfanyl)ethyl (2-(Hexadecylsulfinothioyl)ethyl) ((((R)-1-(6-Amino-9H-purin-9-yl)propan-2-yl)oxy)methyl)-phosphonate [13d] | 4.0 | >1 | 6.32 | CC50 (PBMCs): > 25 µM; CC50 (HepG2 [3]): > 25 µM
11 | 2-(Octadecyldisulfanyl)ethyl (2-(Octadecylsulfinothioyl)ethyl) ((((R)-1-(6-Amino-9H-purin-9-yl)propan-2-yl)oxy)methyl)-phosphonate [13e] | >76 | >1 | 0.331 | CC50 (PBMCs): > 25 µM; CC50 (HepG2 [3]): > 25 µM
12 | C[C@H](Cn1cnc2c(N)ncnc21)OCP(=O)(O)OCCSSCCO [DTE–TFV, 2-((2-Hydroxyethyl)disulfanyl)ethyl Hydrogen ((((R)-1-(6-Amino-9H-purin-9-yl)propan-2-yl)oxy)methyl)phosphonate] | >62.1 | >8.6 |  | 
13 | 2-(Dodecyldisulfanyl)ethyl (2-(Dodecylsulfinothioyl)ethyl) ((((R)-1-(6-Amino-9H-purin-9-yl)propan-2-yl)oxy)methyl)phosphonate [13b] | >85.0 | >1 | 1.18 | CC50 (PBMCs): > 100 µM; CC50 (HepG2 [3]): > 100 µM
14 | Nc1ncnc2c1ncn2CCOCP(=O)(O)O [adefovir] |  |  |  | bioavailability [4]: < 1%; bioavailability [5]: 8–11%
15 | C[C@H](Cn1cnc2c(N)ncnc21)OCP(=O)(O)OCCS [compound 9, 2-Mercaptoethyl Hydrogen ((((R)-1-(6-Amino-9H-purin-9-yl)-propan-2yl)oxy)methyl)phosphonate] | >5.38 | >2.4 |  | 
16 | 2-(Hexadecyldisulfanyl)ethyl Octyl ((((R)-1-(6-Amino-9H-purin-9-yl)propan-2-yl)oxy)methyl)phosphonate [compound 22] | >50 |  | 0.911 | 
17 | CC(C)OC(=O)[C@H](C)N[P@](=O)(CO[C@H](C)Cn1cnc2c(N)ncnc21)Oc1ccccc1 [TAF, tenofovir-alafenamide] |  |  |  | nephrotoxicity [6]: little to no nephrotoxicity
18 | CCCCCCCCCCCCCCCCCCSSCCOP(=O)(O)CO[C@H](C)Cn1cnc2c(N)ncnc21.N [12e, 2-(Octadecyldisulfanyl)ethyl Hydrogen ((((R)-1-(6-Amino-9H-purin-9-yl)propan-2-yl)oxy)methyl)phosphonate] |  | >50 |  | 
